Measured values reported in patent US12421254B2, “KRAS modulators and uses thereof” (Quanta Therapeutics, Inc., priority 2023, dated 2025).
Like-named read-outs stand apart in the source and are kept apart here.

Legend:
[1] = target: GST-tagged KRAS-G12D (2-169) (Homo sapiens, UniProt P01116, G12D); assay: Nucleotide exchange assay (NEA), SOS-mediated, HTRF, KRAS G12D; format: biochemical; conditions: IC50 extracted at 30 min, 20 nM SOScat
Outline: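 Compound preincubated 1 h at RT with 0.25 nM GST-KRAS-G12D (2-169) and anti-GST Tb donor, then 20 nM SOS1cat (564-1049) and 150 nM GTP-DY-647P1 added; pH 7.3 HEPES buffer with MgCl2 and DTT. HTRF monitored at RT; % inhibition versus DMSO and no-SOS blank, 4-parameter IC50 taken at 30 min.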

[2] = target: GST-tagged KRAS-G12V (2-169) (Homo sapiens, UniProt P01116, G12V); assay: Nucleotide exchange assay (NEA), SOS-mediated, HTRF, KRAS G12V; format: biochemical; conditions: Table 4; IC50 extracted at 90 min; 80 nM SOS
Outline: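 GST-KRAS-G12V (2-169), 0.25 nM, pre-incubated 1 h at RT with compound, then SOS1cat (564-1049) 80 nM and GTP-DY-647P1 150 nM added in HEPES pH 7.3 buffer with MgCl2 and DTT. HTRF via anti-GST Tb cryptate read over 90 min; IC50 from 4-parameter fit at 90 min, blanked to no-SOS reactions.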

[3] = Table 4, read-out: NEA G12D IC50

Chain of GST-tagged KRAS-G12V (2-169) (P01116 2-169 isoform P01116-2 G12V): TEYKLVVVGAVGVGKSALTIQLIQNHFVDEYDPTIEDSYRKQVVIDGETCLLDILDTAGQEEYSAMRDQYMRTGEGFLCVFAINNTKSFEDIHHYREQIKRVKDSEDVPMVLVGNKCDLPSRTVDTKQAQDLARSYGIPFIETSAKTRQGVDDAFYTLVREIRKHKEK
Chain of GST-tagged KRAS-G12D (2-169) (P01116 2-169 isoform P01116-2 G12D): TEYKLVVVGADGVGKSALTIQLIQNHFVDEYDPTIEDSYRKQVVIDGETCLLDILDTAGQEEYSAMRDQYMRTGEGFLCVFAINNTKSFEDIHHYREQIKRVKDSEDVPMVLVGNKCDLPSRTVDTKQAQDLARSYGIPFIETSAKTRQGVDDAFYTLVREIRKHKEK

SMILES	IC50 [1, 3] [µM]	IC50 [2] [nM]	IC50 ([1]; Table 2, read-out: NEA-G12D (uM) IC50) [µM]
CCN(c1nc(OCC2(CN(C)C)CCCN2)nc(N2CC3(C2)SCc2sc(N)c(C#N)c23)n1)[C@H](C)c1cccnc1N (stereo partly drawn) [Compound 225, 2-amino-1′-[4-[[(1R)-1-(2-amino-3-pyridyl)ethyl]-ethyl-amino]-6-[[2-[(dimethylamino)methyl]pyrrolidin-2-yl]methoxy]-1,3,5-triazin-2-yl]spiro[6H-thieno[3,4-b]thiophene-4,3′-azetidine]-3-carbonitrile]	0.01 to 0.1	< 10	–
CC(c1ccc(P(C)(C)=O)cc1N)N(C)c1nc(OC[C@@]23CCCN2C[C@H](F)C3)nc(N2CC3(C2)SCc2sc(N)c(C#N)c23)n1 (stereo partly drawn) [Compound 231, 2′-amino-1-(4-((1-(2-amino-4-(dimethylphosphoryl)phenyl)ethyl)(methyl)amino)-6-(((2R,7aS)-2-fluorotetrahydro-1H-pyrrolizin-7a(5H)-yl)methoxy)-1,3,5-triazin-2-yl)-6′H-spiro[azetidine-3,4′-thieno[3,4-b]thiophene]-3′-carbonitrile]	≥ 20	≥ 20000	–
C[C@]1(O)C[C@@H](O)CN(c2nc(OC[C@@]34CCCN3C[C@H](F)C4)nc(N3CC4(CCc5sc(N)c(C#N)c54)C3)n2)C1 [Compound 46, 2-amino-1′-[4-[(3S,5R)-3,5-dihydroxy-3-methyl-1-piperidyl]-6-[[(2R,8S)-2-fluoro-1,2,3,5,6,7-hexahydropyrrolizin-8-yl]methoxy]-1,3,5-triazin-2-yl]spiro[5,6-dihydrocyclopenta[b]thiophene-4,3′-azetidine]-3-carbonitrile]	0.1 to 1	10 to 100	–
CCN(c1nc(OCC2(COC)CCCC2)nc(N2CC3(C2)SCc2sc(N)c(C#N)c23)n1)[C@H](C)c1cccnc1N [Compound 222, 2-amino-1′-[4-[[(1R)-1-(2-amino-3-pyridyl)ethyl]-ethyl-amino]-6-[[1-(methoxymethyl)cyclopentyl]methoxy]-1,3,5-triazin-2-yl]spiro[6H-thieno[3,4-b]thiophene-4,3′-azetidine]-3-carbonitrile]	1 to 20	100 to 1000	–
N#Cc1c(N)sc2c1C1(CN(c3nc(OC[C@@]45CCCN4C[C@H](F)C5)nc(N4C5CSCC4C5)n3)C1)SC2 [Compound 269, 2-amino-1′-[4-[[(2R,8S)-2-fluoro-1,2,3,5,6,7-hexahydropyrrolizin-8-yl]methoxy]-6-(3-thia-6-azabicyclo[3.1.1]heptan-6-yl)-1,3,5-triazin-2-yl]spiro[6H-thieno[3,4-b]thiophene-4,3′-azetidine]-3-carbonitrile]	0.1 to 1	10 to 100	–
CCN(c1nc(OCC2(CO)CCCN2)nc(N2CC3(C2)SCc2sc(N)c(C#N)c23)n1)[C@H](C)c1cccnc1N (stereo partly drawn) [Compound 208, 2-amino-1′-[4-[[(1R)-1-(2-amino-3-pyridyl)ethyl]-ethyl-amino]-6-[[2-(hydroxymethyl)pyrrolidin-2-yl]methoxy]-1,3,5-triazin-2-yl]spiro[6H-thieno[3,4-b]thiophene-4,3′-azetidine]-3-carbonitrile]	< 0.01	< 10	–
CN(c1nc(OC[C@@]23CCCN2C[C@H](F)C3)nc(N2CC3(CCc4sc(N)c(C#N)c43)C2)n1)[C@@H]1CCC[C@@H]1O (racemic) [Compound 92, 2-amino-1′-[4-[[(2R,8S)-2-fluoro-1,2,3,5,6,7-hexahydropyrrolizin-8-yl]methoxy]-6-[[rac-(1R,2S)-2-hydroxycyclopentyl]-methyl-amino]-1,3,5-triazin-2-yl]spiro[5,6-dihydrocyclopenta[b]thiophene-4,3′-azetidine]-3-carbonitrile]	0.1 to 1	100 to 1000	–
N#Cc1c(N)sc2c1C1(CC2)CN(c2nc(OC[C@@]34CCCN3C[C@H](F)C4)nc(N3CCSc4ncccc4C3)n2)C1 [Compound 99, 2-amino-1′-[4-(3,5-dihydro-2H-pyrido[3,2-f][1,4]thiazepin-4-yl)-6-[[(2R,8S)-2-fluoro-1,2,3,5,6,7-hexahydropyrrolizin-8-yl]methoxy]-1,3,5-triazin-2-yl]spiro[5,6-dihydrocyclopenta[b]thiophene-4,3′-azetidine]-3-carbonitrile]	1 to 20	100 to 1000	–
N#Cc1c(N)sc2c1C1(CN(c3nc(OC[C@@]45CCCN4C[C@H](F)C5)nc(Oc4cc[nH]n4)n3)C1)SC2 [Compound 165, 2-amino-1′-[4-[[(2R,8S)-2-fluoro-1,2,3,5,6,7-hexahydropyrrolizin-8-yl]methoxy]-6-(1H-pyrazol-3-yloxy)-1,3,5-triazin-2-yl]spiro[6H-thieno[3,4-b]thiophene-4,3′-azetidine]-3-carbonitrile]	1 to 20	100 to 1000	–
CC1(O)COCCN(c2nc(OCC3(CN4CCOCC4)CC3)nc(N3CC4(C3)SCc3sc(N)c(C#N)c34)n2)C1 (stereo not shown) [Compound 270, 2-amino-1′-[4-(6-hydroxy-6-methyl-1,4-oxazepan-4-yl)-6-[[1-(morpholinomethyl)cyclopropyl]methoxy]-1,3,5-triazin-2-yl]spiro[6H-thieno[3,4-b]thiophene-4,3′-azetidine]-3-carbonitrile]	< 0.01	< 10	–
CN(Cc1c(O)ccnc1N)c1nc(OC[C@@]23CCCN2C[C@H](F)C3)nc(N2CC3(C2)SCc2sc(N)c(C#N)c23)n1 [Compound 182, 2-amino-1′-[4-[(2-amino-4-hydroxy-3-pyridyl)methyl-methyl-amino]-6-[[(2R,8S)-2-fluoro-1,2,3,5,6,7-hexahydropyrrolizin-8-yl]methoxy]-1,3,5-triazin-2-yl]spiro[6H-thieno[2,3-c]thiophene-4,3′-azetidine]-3-carbonitrile]	0.01 to 0.1	10 to 100	–
COC[C@@H]1CC[C@@H](COc2nc(N3CC4(C3)SCc3sc(N)c(C#N)c34)nc(N(CC(F)F)C(C)c3cccnc3N)n2)N1 (mixture of isomers) [Compound 211, 2-amino-1′-[4-[[(1R)-1-(2-amino-3-pyridyl)ethyl]-(2,2-difluoroethyl)amino]-6-[[(2SR,5SR)-5-(methoxymethyl)pyrrolidin-2-yl]methoxy]-1,3,5-triazin-2-yl]spiro[6H-thieno[3,4-b]thiophene-4,3′-azetidine]-3-carbonitrile]	< 0.01	< 10	–
CN(CC1(C#N)CC1)c1nc(OC[C@@]23CCCN2C[C@H](F)C3)nc(N2CCC3(CCc4sc(N)c(C#N)c43)C2)n1 (stereo partly drawn) [Compound 14, 2-amino-1′-[4-[(1-cyanocyclopropyl)methyl-methyl-amino]-6-[[(2R,8S)-2-fluoro-1,2,3,5,6,7-hexahydropyrrolizin-8-yl]methoxy]-1,3,5-triazin-2-yl]spiro[5,6-dihydrocyclopenta[b]thiophene-4,3′-pyrrolidine]-3-carbonitrile]	1 to 20	1000 to 20000	1 to 20
N#Cc1c(N)sc2c1C1(CN(c3nc(OC[C@@]45CCCN4C[C@H](F)C5)nc(N4C5CCC4CC(=O)C5)n3)C1)SC2 [Compound 273, 2-amino-1′-[4-[[(2R,8S)-2-fluoro-1,2,3,5,6,7-hexahydropyrrolizin-8-yl]methoxy]-6-(3-oxo-8-azabicyclo[3.2.1]octan-8-yl)-1,3,5-triazin-2-yl]spiro[6H-thieno[3,4-b]thiophene-4,3′-azetidine]-3-carbonitrile]	0.1 to 1	10 to 100	–
N#Cc1c(N)sc2c1C1(CN(c3nc(OC[C@@]45CCCN4C[C@H](F)C5)nc(N4C5COCC4C5)n3)C1)SC2 [Compound 265, 2-amino-1′-[4-[[(2R,8S)-2-fluoro-1,2,3,5,6,7-hexahydropyrrolizin-8-yl]methoxy]-6-(3-oxa-6-azabicyclo[3.1.1]heptan-6-yl)-1,3,5-triazin-2-yl]spiro[6H-thieno[3,4-b]thiophene-4,3′-azetidine]-3-carbonitrile]	0.1 to 1	10 to 100	–
CC(c1nccnc1O)N(C)c1nc(OC[C@@]23CCCN2C[C@H](F)C3)nc(N2CC3(CCc4sc(N)c(C#N)c43)C2)n1 (stereo partly drawn) [Compound 150, 2-amino-1′-[4-[[(2R,8S)-2-fluoro-1,2,3,5,6,7-hexahydropyrrolizin-8-yl]methoxy]-6-[1-(3-hydroxypyrazin-2-yl)ethyl-methyl-amino]-1,3,5-triazin-2-yl]spiro[5,6-dihydrocyclopenta[b]thiophene-4,3′-azetidine]-3-carbonitrile]	1 to 20	100 to 1000	–
N#Cc1c(N)sc2c1C1(CN(c3nc(OCC4(CN5CCOCC5)CC4)nc(N4CCNC[C@@H]4C(F)F)n3)C1)SC2 [Compound 193, (R)-2′-amino-1-(4-(2-(difluoromethyl)piperazin-1-yl)-6-((1-(morpholinomethyl)cyclopropyl)methoxy)-1,3,5-triazin-2-yl)-6′H-spiro[azetidine-3,4′-thieno[3,4-b]thiophene]-3′-carbonitrile]	< 0.01	10 to 100	–
CC(c1cccnc1N)N(C)c1nc(OC[C@@H]2CCC(=O)N2)nc(N2CC3(CCc4sc(N)c(C#N)c43)C2)n1 (stereo partly drawn) [Compound 112, 2-amino-1′-[4-[1-(2-amino-3-pyridyl)ethyl-methyl-amino]-6-[[(2S)-5-oxopyrrolidin-2-yl]methoxy]-1,3,5-triazin-2-yl]spiro[5,6-dihydrocyclopenta[b]thiophene-4,3′-azetidine]-3-carbonitrile]	1 to 20	100 to 1000	–
